We go through one compound from patent publication US20220144775A1, “HYDRAZIDE COMPOUND AND KINASE INHIBITOR” (NISSAN CHEMICAL CORPORATION, priority 2019, published 2022).

Assay [1] relates to Colitis model administered with dextran sulfate sodium (DSS). As to the kind of experiment: Inflammation suppressive effect on DSS colitis model mouse. Conditions: C57BL/6NCrl mice; 2.5 w/v % DSS drinking water; 50 mg/kg intraperitoneally every 24 hr; day 8; FIG. 3. Format: in vivo. The procedure:
Colitis model administered with dextran sulfate sodium (DSS) (manufactured by FUJIFILM Wako Pure Chemical Corporation) was produced as described below. The length of the large intestine is used as a morphological parameter in the evaluation of colitis, and the large intestine shortens according to the degree of inflammation. Therefore, the anti-inflammatory effect of the compound was evaluated by comparing the length of the large intestine. As the Buffer, a 0.5 w/v % methylcellulose aqueous solution (manufactured by FUJIFILM Wako Pure Chemical Corporation) added with Dimethyl sulfoxide (manufactured by FUJIFILM Wako Pure Chemical Corporation) at 1 v/v % was used. It was prepared by suspending compound A-004A in the above-mentioned Buffer at 5 mg/mL. As the mouse, male C57BL/6NCrl, 6-week-old, was purchased from CHARLES RIVER LABORATORIES JAPAN, INC. As drinking water, distilled water or a 2.5 w/v % DSS aqueous solution was freely given. The DSS drinking start date was set as day 1, and the water was given until day 8. Compound A-004A was intraperitoneally administered at 50 mg/kg every 24 hr from day 1. As a negative control, Buffer alone was administered similarly. On day 8, the mouse was dissected, the large intestine was isolated and the length of the large intestine was measured. Conducted in 3-4 cases in each group.

For assay [2], the system named is YAP. As to the kind of experiment: YAP phosphorylation inhibitory action in SKOV3 (HTRF). Format: cell-based, human. The following applies: 10 μM, 1 hr, non-treatment 100%. The procedure: Human ovarian cancer cell line SKOV3 (manufactured by DS Pharma Biomedical Co., Ltd.) was precultured using a 15% FBS-containing McCoy's 5a medium (manufactured by Sigma-Aldrich) (single layer culture). The above-mentioned cells in the logarithmic growth phase were washed with PBS. A 0.25% (w/v) trypsin-1 mmol/L ethylenediaminetetraacetic acid (EDTA) solution (manufactured by FUJIFILM Wako Pure Chemical Corporation) was added and the adherent cells were incubated at 37° C. for 3 min and detached. The above-mentioned medium was added, and the cells were centrifuged and resuspended in the same medium.
According to the method of patent document 1 (WO 2014/017513), a composition of 10% FBS-containing DMEM medium (Phenol-red free, manufactured by FUJIFILM Wako Pure Chemical Corporation) containing 0.015% (w/v) deacylated gellan gum (KELCOGEL CG-LA, manufactured by SANSHO Co., Ltd.) was prepared using FCeM-series Preparation Kit (manufactured by FUJIFILM Wako Pure Chemical Corporation). Then, various cells prepared above were suspended in the above-mentioned medium composition (3D culture conditions) added with deacylated gellan gum or a medium without the addition (2D culture conditions), and seeded on a 50 μL/well (manufactured by Corning Incorporated, a 96 well flat bottom plate, #3585, 2D culture conditions) or 25 μL/well (manufactured by Corning Incorporated, 96 well low adhesion flat bottom plate, #3474) at 100000 cells/well. The plate was allowed to stand at 37° C. in a 5% CO2 incubator, and the compound of the present invention diluted with the medium at 2 or 6 times the final concentration, DMSO, or the medium alone was added to the plate 3 hr after the seeding at 50 μL/well (2D culture conditions) or 5 μL/well (3D culture conditions) to make the final concentration of each compound 10 μM. After culture at 37° C. in a 5% CO2 incubator for 1 hr, the supernatant was aspirated, supplemented Lysis buffer (1-fold concentration, manufactured by Cisbio, YAP-total kit or YAP phospho-S27 kit) (50 μL) was added under 2D culture conditions, and supplemented Lysys buffer (4-fold concentration) (10 μL) was added to the culture supernatant under 3D conditions, and the mixture was stirred by a plate shaker for 30 min. Thereafter, the plate was centrifuged, 16 μL of the supernatant was transferred to a 384-well white plate (Corning, #4512), and each antibody solution (pYAP d2 antibody or Total-YAP d2 antibody, and pYAP Cryptate antibody or Total-YAP Cryptate antibody) included in the kit was added at 4 μL/well in total, and the mixture was allowed to stand at room temperature overnight. As a blank control, pYAP Cryptate antibody or Total-YAP Cryptate antibody alone was added to cells free of stimulation with compound and the mixture was treated in the same manner. The next day, the wavelengths at 665 nm and 615′ nm were measured in the HTRF mode of EnVision (manufactured by PerkinElmer).
The obtained signal was calculated as follows. Ratio=signal (665 nm)/signal (615 nm)×10000, ΔR=Signal(Ratio)−Background fluorescence, and the relative phosphorylated YAP amount or total YAP amount for each compound when ΔR of the compound non-addition group (non-treatment) is 100% is shown in Tables 7 and 8 (2D culture), and Tables 9 and 10 (3D culture). From the results, it was shown that the compound of the present zo invention has a YAP phosphorylation inhibitory action under both 2D and 3D culture conditions.
On the technique in general: TR-FRET usually uses a lanthanide donor and a delayed reading to cut background.

Assay [3] deals with MDCK cells. Briefly: Observation of Cyst form with confocal fluorescence microscope. Format: cell-based, canine. Conditions: 10 μM; β catenin, Phalloidin, DAPI staining; FIG. 1. The procedure: As for the respective Matrix GFRs containing Cyst cultured in a medium added with DMSO or A-004A (10 μM) and obtained in Experimental Example 3, the cells were washed with PBS (1 mL/well), 4% paraformaldehyde/PBS (manufactured by FUJIFILM Wako Pure Chemical Corporation) was added (1 mL/well) and fixed at room temperature for 20 min. Thereafter, the supernatant was removed, staining buffer [0.2% Triton X-100 (manufactured by Sigma-Aldrich), 0.05% Tween 20 (manufactured by Sigma-Aldrich)-containing PBS] were added at 1 mL/well, stood for 30 min and removed. Penetration buffer (0.5% Triton X-100 (manufactured by Sigma-Aldrich)/PBS) was added at 1 mL/well and incubated at room temperature for 30 min. The supernatant was removed, washed 3 times every 5 min with staining buffer, blocking buffer (1% bovine serum albumin (BSA manufactured by Sigma-Aldrich)/staining buffer) was added at 0.5 mL/well and incubated for 30 min. The supernatant was removed, an anti-β catenin antibody (manufactured by BD Bioscience) diluted 100-fold with blocking buffer was added at 250 μL/well, and the cells were incubated at room temperature for 60 min. […]

Turning to `CC/C(=N\NC(=O)C(C)Nc1cccnc1)c1ccc(O)c(C)c1O` (single isomer, unassigned) [A-004A, (E)-N′-(1-(2,4-dihydroxy-3-methylphenyl)propylidene)-2-(pyridin-3-ylamino)propanehydrazide], the “length of the large intestine” value in assay [1] is “shortening of the large intestine was suppressed more”. Further, in assay [2] (2D culture conditions), the “phosphorylated YAP amount (%)” value is 14% and the “total YAP amount (%)” value was 97%. Besides, in assay [2] (3D culture conditions), the “phosphorylated YAP amount (%)” value came to 11% and the “total YAP amount (%)” value turned out to be 112%. Besides, the Cyst form result in assay [3] is reported as “Cyst with a normal form was formed”.
